Source: the supplement of paper PMC10307832

Key:
Assay in all cases: relative viability (nuclei count vs DMSO), 5 days (fraction); higher = more cells survive
NCI-H1993 = test system: NCI-H1993
Outline: (§1)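 Medians of duplicate plates are given as relative viability. That measure is the nuclei count in treated wells divided by the count in vehicle wells. Counts were taken on 4× images of lung cancer cell lines in 1536-well plates, 5 days after pin-tool dosing the day after seeding with one drug alone or a fixed anchor-drug dose plus five library-drug doses (not always all listed) in √10 steps.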

SW 900 = test system: SW 900
Outline: as §1

HCC-44 = test system: HCC-44
Outline: as §1

A-427 = test system: A-427
Outline: as §1

NCI-H522 = test system: NCI-H522
Outline: as §1

NCI-H460 = test system: NCI-H460
Outline: as §1

NCI-H1650 = test system: NCI-H1650
Outline: as §1

LU99A = test system: LU99A
Outline: as §1

LK-2 = test system: LK-2
Outline: as §1

NCI-H358 = test system: NCI-H358
Outline: as §1

NCI-H1755 = test system: NCI-H1755
Outline: as §1

EMC-BAC-2 = test system: EMC-BAC-2
Outline: as §1

Work on Cc1cn(-c2cc(NC(=O)c3ccc(C)c(Nc4nccc(-c5cccnc5)n4)c3)cc(C(F)(F)F)c2)cn1 [Nilotinib] + CC(=O)c1c(C)c2cnc(Nc3ccc(N4CCNCC4)cn3)nc2n(C2CCCC2)c1=O [Palbociclib] (partner 0.5 µM) yielded a relative viability (NCI-H1993; first compound 0.03162 µM) of 0.624, a relative viability (NCI-H1993; first compound 0.1 µM) of 0.851 and a relative viability (SW 900; first compound 0.003162 µM) of 0.47. For the same compound, the relative viability (SW 900; first compound 0.01 µM) was 0.524, the relative viability (SW 900; first compound 0.03162 µM) was 0.455 and the relative viability (SW 900; first compound 0.1 µM) was 0.476. For the same compound, the relative viability (HCC-44; first compound 0.001 µM) was 0.911, the relative viability (HCC-44; first compound 0.003162 µM) was 0.933 and the relative viability (HCC-44; first compound 0.01 µM) was 0.927. For the same compound, the relative viability (HCC-44; first compound 0.1 µM) was 0.931, the relative viability (A-427; first compound 0.001 µM) was 0.51 and the relative viability (A-427; first compound 0.003162 µM) was 0.493. For the same compound, the relative viability (A-427; first compound 0.01 µM) was 0.524, the relative viability (A-427; first compound 0.03162 µM) was 0.552 and the relative viability (A-427; first compound 0.1 µM) was 0.466. The relative viability (NCI-H522; first compound 0.03162 µM) was 0.819, the relative viability (NCI-H522; first compound 0.1 µM) was 0.805 and the relative viability (NCI-H460; first compound 0.001 µM) was 0.101. It also gave a relative viability (NCI-H460; first compound 0.003162 µM) of 0.0788, a relative viability (NCI-H460; first compound 0.01 µM) of 0.144 and a relative viability (NCI-H460; first compound 0.03162 µM) of 0.148. The relative viability (NCI-H460; first compound 0.1 µM) was 0.134, the relative viability (NCI-H1650; first compound 0.001 µM) was 0.329 and the relative viability (NCI-H1650; first compound 0.003162 µM) was 0.402. For the same compound, the relative viability (NCI-H1650; first compound 0.01 µM) was 0.324, the relative viability (NCI-H1650; first compound 0.03162 µM) was 0.309 and the relative viability (NCI-H1650; first compound 0.1 µM) was 0.298. For the same compound, the relative viability (LU99A; first compound 0.001 µM) was 0.408, the relative viability (LU99A; first compound 0.003162 µM) was 0.377 and the relative viability (LU99A; first compound 0.01 µM) was 0.402. The relative viability (LU99A; first compound 0.03162 µM) was 0.44, the relative viability (LU99A; first compound 0.1 µM) was 0.314 and the relative viability (LK-2; first compound 0.001 µM) was 0.751. It also gave a relative viability (LK-2; first compound 0.003162 µM) of 0.475, a relative viability (LK-2; first compound 0.01 µM) of 0.788 and a relative viability (LK-2; first compound 0.03162 µM) of 0.698. For the same compound, the relative viability (LK-2; first compound 0.1 µM) was 0.992, the relative viability (NCI-H358; first compound 0.001 µM) was 0.131 and the relative viability (NCI-H358; first compound 0.003162 µM) was 0.131. The relative viability (NCI-H358; first compound 0.01 µM) was 0.148, the relative viability (NCI-H358; first compound 0.03162 µM) was 0.124 and the relative viability (NCI-H358; first compound 0.1 µM) was 0.127. It also gave a relative viability (NCI-H1755; first compound 0.001 µM) of 0.451, a relative viability (NCI-H1755; first compound 0.003162 µM) of 0.453 and a relative viability (NCI-H1755; first compound 0.01 µM) of 0.436. The relative viability (NCI-H1755; first compound 0.03162 µM) was 0.468, the relative viability (NCI-H1755; first compound 0.1 µM) was 0.368 and the relative viability (EMC-BAC-2; first compound 0.001 µM) was 0.477. It also gave a relative viability (EMC-BAC-2; first compound 0.003162 µM) of 0.47, a relative viability (EMC-BAC-2; first compound 0.01 µM) of 0.481 and a relative viability (EMC-BAC-2; first compound 0.03162 µM) of 0.487. For the same compound, the relative viability (EMC-BAC-2; first compound 0.1 µM) was 0.526.
